Test results taken from the CheMixHub viscosity set.
± gives the uncertainty stated by the source.

Assay: xn = mol fraction of the nth substance listed

C=CC#N + CCCCO
viscosity [mPa·s], 101.33 kPa
Conditions | x1 = 0.1054 | x1 = 0.2059 | x1 = 0.305 | x1 = 0.4063 | x1 = 0.5073 | x1 = 0.6039 | x1 = 0.6962 | x1 = 0.8074 | x1 = 0.9006
298.15 K | 1.797 ± 0.022 | 1.363 ± 0.017 | 1.065 ± 0.014 | 0.849 ± 0.011 | 0.69 ± 0.009 | 0.581 ± 0.008 | 0.499 ± 0.007 | 0.429 ± 0.006 | 0.386 ± 0.006
303.15 K | 1.596 ± 0.02 | 1.221 ± 0.015 | 0.965 ± 0.013 | 0.776 ± 0.01 | 0.637 ± 0.009 | 0.539 ± 0.008 | 0.468 ± 0.007 | 0.407 ± 0.006 | 0.369 ± 0.006
308.15 K | 1.424 ± 0.018 | 1.102 ± 0.014 | 0.881 ± 0.012 | 0.714 ± 0.01 | 0.594 ± 0.008 | 0.505 ± 0.007 | 0.442 ± 0.007 | 0.385 ± 0.006 | 0.352 ± 0.006

CN(C)c1ccccc1 + CC(C)=O
viscosity [mPa·s], 101 kPa
Conditions | 303.15 K | 308.15 K
x1 = 0.0782 | 0.409 ± 0.019 | 0.374 ± 0.018
x1 = 0.1356 | 0.494 ± 0.021 | 0.448 ± 0.02
x1 = 0.1965 | 0.584 ± 0.024 | 0.535 ± 0.022
x1 = 0.2551 | 0.668 ± 0.026 | 0.614 ± 0.025
x1 = 0.3205 | 0.757 ± 0.029 | 0.698 ± 0.027
x1 = 0.3921 | 0.844 ± 0.032 | 0.781 ± 0.03
x1 = 0.4724 | 0.925 ± 0.035 | 0.857 ± 0.032
x1 = 0.5558 | 0.992 ± 0.037 | 0.921 ± 0.035
x1 = 0.6214 | 1.033 ± 0.038 | 0.958 ± 0.036
x1 = 0.7086 | 1.072 ± 0.039 | 0.995 ± 0.037
x1 = 0.7784 | 1.095 ± 0.04 | 1.018 ± 0.038
x1 = 0.8565 | 1.118 ± 0.041 | 1.046 ± 0.039
x1 = 0.9221 | 1.138 ± 0.041 | 1.069 ± 0.039

C=CC#N + COC(C)=O
viscosity [mPa·s]
Conditions | 298.15 K | 303.15 K | 308.15 K
101.3 kPa, x1 = 0.1018 | – | 0.3427 ± 0.0031 | –
101.3 kPa, x1 = 0.1999 | – | 0.3428 ± 0.0031 | –
101.3 kPa, x1 = 0.3006 | – | 0.3407 ± 0.0031 | –
101.3 kPa, x1 = 0.4001 | – | 0.338 ± 0.0031 | –
101.3 kPa, x1 = 0.4946 | – | 0.3357 ± 0.0031 | –
101.3 kPa, x1 = 0.6012 | – | 0.3319 ± 0.0031 | –
101.3 kPa, x1 = 0.6955 | – | 0.3283 ± 0.0031 | –
101.3 kPa, x1 = 0.8014 | – | 0.3242 ± 0.0031 | –
101.3 kPa, x1 = 0.896 | – | 0.3198 ± 0.0031 | –
101.33 kPa, x1 = 0.0617 | 0.389 ± 0.006 | 0.371 ± 0.006 | 0.354 ± 0.006
101.33 kPa, x1 = 0.1961 | 0.385 ± 0.006 | 0.367 ± 0.006 | 0.351 ± 0.006
101.33 kPa, x1 = 0.3042 | 0.38 ± 0.006 | 0.362 ± 0.006 | 0.349 ± 0.006
101.33 kPa, x1 = 0.4041 | 0.375 ± 0.006 | 0.357 ± 0.006 | 0.345 ± 0.006
101.33 kPa, x1 = 0.5024 | 0.37 ± 0.006 | 0.353 ± 0.006 | 0.34 ± 0.005
101.33 kPa, x1 = 0.6004 | 0.365 ± 0.006 | 0.348 ± 0.006 | 0.335 ± 0.005
101.33 kPa, x1 = 0.7033 | 0.36 ± 0.006 | 0.343 ± 0.006 | 0.33 ± 0.005
101.33 kPa, x1 = 0.8037 | 0.355 ± 0.006 | 0.336 ± 0.005 | 0.322 ± 0.005
101.33 kPa, x1 = 0.8416 | 0.353 ± 0.006 | 0.333 ± 0.005 | 0.319 ± 0.005

C=CC#N + CC(=O)N(C)C
303.15 K, 101.3 kPa
Conditions | viscosity [mPa·s]
x1 = 0.0998 | 0.8246 ± 0.0053
x1 = 0.1982 | 0.7637 ± 0.005
x1 = 0.297 | 0.7048 ± 0.0047
x1 = 0.3941 | 0.6449 ± 0.0044
x1 = 0.5009 | 0.5797 ± 0.0041
x1 = 0.5995 | 0.5228 ± 0.0039
x1 = 0.6984 | 0.4682 ± 0.0037
x1 = 0.7976 | 0.4132 ± 0.0034
x1 = 0.9005 | 0.3591 ± 0.0032

O=C1c2ccccc2C(=O)C1(O)O + C[N+](C)(C)CCO.[Cl-]
Conditions | viscosity [mPa·s]
323.15 K, 100 kPa, x2 = 0.571 | 30500

CCCCC(C)CC (stereo not drawn) + C1C[C@@H]2[C@H]3CC[C@H](C3)[C@@H]2C1
viscosity [mPa·s], 100 kPa
Conditions | x2 = 0.0994 | x2 = 0.2004 | x2 = 0.2996 | x2 = 0.4001 | x2 = 0.5008 | x2 = 0.5973 | x2 = 0.6998 | x2 = 0.8016 | x2 = 0.8999
293.15 K | 0.577 ± 0.013 | 0.657 ± 0.014 | 0.755 ± 0.016 | 0.882 ± 0.019 | 1.044 ± 0.023 | 1.249 ± 0.027 | 1.521 ± 0.033 | 1.882 ± 0.041 | 2.336 ± 0.051
298.15 K | 0.547 ± 0.012 | 0.62 ± 0.013 | 0.708 ± 0.015 | 0.824 ± 0.018 | 0.971 ± 0.021 | 1.154 ± 0.025 | 1.399 ± 0.031 | 1.722 ± 0.038 | 2.125 ± 0.046
303.15 K | 0.519 ± 0.011 | 0.589 ± 0.013 | 0.667 ± 0.014 | 0.772 ± 0.017 | 0.905 ± 0.02 | 1.065 ± 0.023 | 1.294 ± 0.028 | 1.585 ± 0.035 | 1.945 ± 0.043
308.15 K | 0.495 ± 0.011 | 0.557 ± 0.012 | 0.63 ± 0.014 | 0.726 ± 0.016 | 0.848 ± 0.018 | 1 ± 0.022 | 1.201 ± 0.026 | 1.457 ± 0.032 | 1.788 ± 0.039
313.15 K | 0.472 ± 0.01 | 0.53 ± 0.012 | 0.597 ± 0.013 | 0.685 ± 0.015 | 0.796 ± 0.017 | 0.935 ± 0.02 | 1.118 ± 0.024 | 1.357 ± 0.03 | 1.65 ± 0.036

CCC(C)(C)O + O
298.15 K, 101 kPa
Conditions | viscosity [mPa·s]
x2 = 0.0042 | 3.548 ± 0.033
x2 = 0.0429 | 3.711 ± 0.036
x2 = 0.0863 | 3.875 ± 0.04
x2 = 0.124 | 3.987 ± 0.043
x2 = 0.1654 | 4.122 ± 0.047
x2 = 0.197 | 4.218 ± 0.05
x2 = 0.214 | 4.269 ± 0.051
x2 = 0.2583 | 4.388 ± 0.056
x2 = 0.2775 | 4.443 ± 0.058
